Source: US8317991B2, “Process for electrokinetic migration through liquid membranes” (priority 2005, dated 2012)
Structures can show the parent of a compound that is named as a salt.

Columns and labels:
[1] = 1-octanol/water partition coefficient; Clarkes Analysis of Drugs and Poisons; cited from earlier work
[2] = Clarkes Analysis of Drugs and Poisons; cited from earlier work
[3] = Electrokinetic cross-membrane isolation (ECMI) of basic drugs; recovery in acceptor solution by capillary electrophoresis; format: physicochemical; parameters: key to Recovery: *: Recovery was observed, but results were unreliable due to large standard deviations; settings: for Recovery: liquid membrane 2-octanone, 300 V, 5 min, 5.2 mm vial; for Enrichment: optimal ECMI, 300 μl sample to 30 μl acceptor
Method: The DC power supply used was a model XFR 300-9 (Xantrex, Burnaby, BC, Canada) with a programmable voltage in the range 0 to 300 V, providing currents in the range 0 to 9 A. Simple steel wires with a diameter of 0.2 mm were used as electrodes in the sample and acceptor solutions, and were connected to the power supply. As sample compartment, 800 μL polypropylene vials with cap were used with a height of 35 mm and with an internal diameter of 5.2 mm (unknown supplier). […] The porous hollow fiber used for immobilization of the artificial liquid membrane and for housing the acceptor solution was a PP Q3/2 polypropylene hollow fiber (Membrana, Wuppertal, Germany) with an internal diameter of 1.2 mm, with a 200 μm wall thickness, and with 0.2 μm pores. The ECMI was agitated at 1200 rpm during the experiments with a Vibramax 100 agitator (Heidolph, Kelheim, Germany).
ECMI was performed according to the following procedure; 300 μl acidified sample solution was filled into a polypropylene vial, and the positive electrode was placed in the sample. A 3.1 cm piece of polypropylene hollow fiber was closed in the lower end by mechanical pressure, whereas the upper end was connected to a 2.2 cm length pipette tip of polypropylene as a guiding tube. The hollow fiber and the guiding tube were then inserted through the cap of the sample vial. The hollow fiber was dipped for 5 s in the organic solvent serving as the artificial liquid membrane (typically 2-nitrophenyl octyl ether, nitrobenzene, 1-isopropyl nitrobenzene, octanol or heptanol), and excess of solvent was removed with a medical wipe. With a micro syringe, 30 μL of acceptor solution was filled into the hollow fiber, and the negative electrode was placed in the acceptor solution. Finally, the hollow fiber with acceptor solution was placed into the sample, and voltage (typically 300 V) was applied for 5 minutes. After electrokinetic cross-membrane isolation, the acceptor solution was collected with a micro syringe, and was transferred to a micro insert for the capillary electrophoresis instrument.
Capillary electrophoresis was performed with a MDQ instrument (Beckman, Fullerton, Calif., USA) equipped with a UV-detector. Separations were accomplished in a 75-μm-i.d. fused-silica capillary with an effective length of 20 cm (Beckman). The running buffer was 15 mM phosphate adjusted to pH 2.7 with ortho-phosphoric acid. The instrument was operated at 20 kV, which generated a current level of approximately 50 μA. Samples were introduced by hydrodynamic injection at 0.5 psi for 5 s. Detection was accomplished at 200 nm utilizing a 100×800 μm slit.
Recovery (R) during the cross-membrane isolation was calculated according to the following equation for each analyte: R=na,final/ns,initial×100%=(Va/Vs)(Ca,final/Cs,initial)·100% (1) where ns,initial and na,final are the number of moles of analyte originally present in the sample and the number of moles of analyte finally collected in the acceptor solution, respectively. Va is the volume of acceptor phase, Vs is the volume of sample, Ca,final is the final concentration of analyte in the acceptor phase, and Cs,initial is the initial analyte concentration within the sample.
Enrichment (E) during the cross-membrane isolation was calculated according to the following equation for each analyte: E=Ca,final/Cs,initial (2) Results and Discussion Initial Experiments.

Row | SMILES | log P [1] | pKa [2] | Recovery [3] | Enrichment [3]
1 | CN1CCC[C@@H]1CCO[C@](C)(c1ccccc1)c1ccc(Cl)cc1 [Clemastine, clemastine] | 5.7 | 10.2 | – | –
2 | CN(C)CCCN1c2ccccc2CCc2ccc(Cl)cc21 [Clomipramine, clomipramine] | 5.2 | – | – | –
3 | OCCN1CCN(CCCN2c3ccccc3Sc3ccc(C(F)(F)F)cc32)CC1 [Fluphenazine, fluphenazine] | 3.5 | – | – | –
4 | O=C(CCCN1CCC(O)(c2ccc(Cl)cc2)CC1)c1ccc(F)cc1 [Haloperidol, haloperidol] | 3.2 | – | * | 7.2
5 | OCCOCCN1CCN(C(c2ccccc2)c2ccc(Cl)cc2)CC1 (centres unmarked) [Hydroxyzine, hydroxyzine] | 2.4 | – | – | –
6 | CN(C)C(=O)C(CCN1CCC(O)(c2ccc(Cl)cc2)CC1)(c1ccccc1)c1ccccc1 [Loperamide, loperamide hydrochloride] | 5.2 | 8.1 | * | 7.6
7 | COc1ccc(CN(CCN(C)C)c2ccccn2)cc1 [Mepyramine, mepyramine] | 2.8 | – | – | –
8 | CN[C@@H](C)Cc1ccccc1 [Metamfetamine, methamphetamine sulphate] | – | 10.1 | – | –
9 | C[C@H](N)[C@H](O)c1cccc(O)c1 [Metaraminol, metaraminol hydrochloride] | −0.3 | 8.6 | – | –
10 | CCC(=O)C(CC(C)N(C)C)(c1ccccc1)c1ccccc1 (centres unmarked) [Methadone, methadone hydrochloride] | – | – | * | 7.9
11 | CNCCC=C1c2ccccc2CCc2ccccc21 [Nortriptyline, nortriptyline hydrochloride] | 1.7 | – | * | 7.0
12 | CCOC(=O)C1(c2ccccc2)CCN(C)CC1 [Pethidine, Pethidine hydrochloride] | – | – | * | 7.0
13 | c1ccc(C2(N3CCCCC3)CCCCC2)cc1 [Phencyclidine, phencyclidine] | 4.7 | – | – | –
14 | CC(=O)Nc1ccc(OCC(O)CNC(C)C)cc1 (centres unmarked) [Practolol, practolol] | −1.3 | – | – | –
15 | CC(CN1c2ccccc2Sc2ccccc21)N(C)C (centres unmarked) [Promethazine, promethazine] | 2.9 | – | – | –
